Measurements: PMC5130005, “Indolin-2-one compounds targeting thioredoxin reductase as potential anticancer drug leads” (Oncotarget, 2016)

Legend:
HCT 116 cells = test: MTT cell viability assay, HCT 116 cells; type: cell-based; settings: Homo sapiens, 72 h, mean ± SD of 3 experiments; for GI50: read-out: GI50 (50% growth inhibition concentration), HCT 116 cells
Method: (§1) HCT 116 and MCF-7 cells were seeded in 96-well plates at a density of 1 × 10^4 cells/well and allowed to grow for 20-24 h before addition of test compounds. DMSO stocks of indolin-2-one compounds were serially diluted in medium each time an assay was performed. Cell viability was determined at the time of compound addition (time 0) and after 72 h of compound treatment by reduction of 3-(4,5-dimethylthiazol-2-yl)-2,5-diphenyltetrazolium bromide (MTT) by dehydrogenases in viable cells. MTT was added into each well (final concentration 400 μg/ml) and the plates were incubated for 4 h at 37°C. The supernatants were aspirated and upon solubilization of the formed formazan crystals in DMSO:glycine buffer pH 10.5 (ratio 4:1), absorbance at 550 nm was measured. 50% growth inhibition concentrations (GI50) and 50% lethal concentrations (LC50) values were calculated.

MCF-7 cells = test: MTT cell viability assay, MCF-7 cells; type: cell-based; settings: Homo sapiens, MCF7, 72 h, mean ± SD of 3 experiments; for GI50: read-out: GI50 (50% growth inhibition concentration), MCF-7 cells; for CC50: read-out: LC50 (50% lethal concentration), MCF-7 cells
Method: as §1

recombinant rat TrxR [1] = biological target: T1, recombinant rat TrxR (Rattus norvegicus, UniProt O89049); test: in vitro TrxR DTNB reduction assay; type: biochemical; settings: 30 min incubation, 100 nM recombinant rat TrxR, 200 μM NADPH, read-out: TrxR inhibition IC50
T1 construct: made in house
T1 sequence (O89049 1-499): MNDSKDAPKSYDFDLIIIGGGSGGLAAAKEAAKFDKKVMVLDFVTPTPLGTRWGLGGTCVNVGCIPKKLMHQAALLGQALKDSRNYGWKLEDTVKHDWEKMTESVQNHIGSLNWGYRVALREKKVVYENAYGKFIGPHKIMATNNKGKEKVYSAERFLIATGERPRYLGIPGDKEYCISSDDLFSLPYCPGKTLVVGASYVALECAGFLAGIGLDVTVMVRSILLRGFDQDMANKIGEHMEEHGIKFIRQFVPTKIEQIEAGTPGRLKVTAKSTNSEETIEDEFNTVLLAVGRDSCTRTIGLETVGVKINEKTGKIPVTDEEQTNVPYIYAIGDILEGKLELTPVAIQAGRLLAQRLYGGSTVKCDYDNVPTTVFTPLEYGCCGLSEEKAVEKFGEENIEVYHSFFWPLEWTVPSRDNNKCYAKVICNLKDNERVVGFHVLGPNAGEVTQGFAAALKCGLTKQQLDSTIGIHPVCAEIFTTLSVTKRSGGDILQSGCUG
Method: In a volume of 100 μl of 50 mM Tris-HCl pH 7.5, 2 mM EDTA buffer (TE buffer), compounds of concentrations 1-100 μM were incubated with 100 nM recombinant rat TrxR and 200 μM NADPH at room temperature in 96-well plates for 30 and 60 min. The incubation was terminated by addition of 100 μl per well of 10 mM DTNB, 200 μM NADPH solution in TE buffer and immediately followed by measurement of linear increase of absorbance at 412 nm for the initial 2 min using the VersaMax microplate reader (Molecular Devices). The results were expressed as % of TrxR activity of drug-treated sample over that of DMSO control. The 50% inhibition concentration (IC50) values were calculated.

recombinant rat TrxR [2] = biological target: T1, recombinant rat TrxR; test: NADPH oxidase activity of recombinant rat TrxR (substrate test); type: biochemical; settings: 8 μM juglone, 15 nM TrxR, 250 μM NADPH, 20 min
Method: In a volume of 198 μl of 15 nM recombinant rat TrxR and 250 μM NADPH in TE buffer, 2 μl of diluted DMSO stocks of juglone and compounds 4 and 5 was added to final concentrations of 8 μM (for julgone) and 100 μM (for compounds 4 and 5). The consumption of NADPH was immediately monitored at 340 nm for 20 min using the VersaMax microplate reader. The linear decrease in NADPH absorbance was used for calculating NADPH consumption and expressed as % of activity of drug-treated sample over that of DMSO-treated sample.

| SMILES | LC50 (50% lethal concentration) (HCT 116 cells) | GI50 (HCT 116 cells) | GI50 (MCF-7 cells) | CC50 (MCF-7 cells) | IC50 (recombinant rat TrxR [1]) | rate of NADPH consumption of recombinant TrxR (recombinant rat TrxR [2]) |
| --- | --- | --- | --- | --- | --- | --- |
| CCN1C(=O)/C(=C/C(C)=O)c2ccccc21 [Compound 2] | 9.7 ± 0.1 µM | 4.2 ± 0.5 µM | 7.9 ± 1.7 µM | 25 ± 1.6 µM | 10.2 ± 1.8 µM | – |
| CC(=O)/C=C1/C(=O)N(C(C)C)c2ccccc21 [Compound 3] | 9.8 ± 0.1 µM | 5.3 ± 0.1 µM | 7.1 ± 0.6 µM | 22.4 ± 0.6 µM | 15 ± 1.4 µM | – |
| Cc1ccccc1C(=O)/C=C1/C(=O)N(C)c2ccccc21 [Compound 7] | 27.8 ± 0.8 µM | 12.4 ± 2.1 µM | 17.3 ± 4.6 µM | 27.9 ± 1.5 µM | 19 ± 2.4 µM | – |
| Cc1cccc(C(=O)/C=C2/C(=O)N(C)c3ccccc32)c1 [Compound 8] | 28 ± 1 µM | 10.4 ± 2.6 µM | 14 ± 0.6 µM | 27.9 ± 0.6 µM | 22.5 ± 0.4 µM | – |
| Cc1ccc(C(=O)/C=C2/C(=O)N(C)c3ccccc32)cc1 [Compound 9] | 28.6 ± 0.8 µM | 10.5 ± 1.2 µM | 10.5 ± 0.8 µM | 28.4 ± 0.8 µM | 21.6 ± 4.4 µM | – |
| CCc1ccc(C(=O)/C=C2/C(=O)N(C)c3ccccc32)cc1 [Compound 10] | 28.8 ± 1.1 µM | 11.9 ± 1.1 µM | 10.4 ± 0.6 µM | 30.4 ± 6.2 µM | 19.1 ± 0.4 µM | – |
| CC(C)c1ccc(C(=O)/C=C2/C(=O)N(C)c3ccccc32)cc1 [Compound 11] | 26.7 ± 1.7 µM | 14.4 ± 1.8 µM | 10.5 ± 1.7 µM | 27 ± 0.4 µM | 25.2 ± 5.4 µM | – |
| CCCCc1ccc(C(=O)/C=C2/C(=O)N(C)c3ccccc32)cc1 [Compound 12] | 26.7 ± 0.8 µM | 13.5 ± 2.6 µM | 16.5 ± 4 µM | 81.2 ± 9.7 µM | > 100 µM | – |
| CN1C(=O)/C(=C/C(=O)c2ccc(F)cc2)c2ccccc21 [Compound 13] | 29 ± 1.4 µM | 11.9 ± 0.5 µM | 12.5 ± 2.4 µM | 28.6 ± 1.2 µM | 18.7 ± 3.56 µM | – |
| CN1C(=O)/C(=C/C(=O)c2cccc(Cl)c2)c2ccccc21 [Compound 14] | 26.9 ± 1.5 µM | 15.6 ± 1.1 µM | 23 ± 4.5 µM | 84.3 ± 5.8 µM | 18.4 ± 2.2 µM | – |
| CN1C(=O)/C(=C/C(=O)c2ccc(Cl)cc2)c2ccccc21 [Compound 15] | 28.6 ± 1.4 µM | 12.4 ± 2.8 µM | 20.9 ± 3 µM | 92 ± 1.2 µM | 16.9 ± 3.4 µM | – |
| CN1C(=O)/C(=C/C(=O)c2ccccc2C(F)(F)F)c2ccccc21 [Compound 16] | 27.7 ± 3.1 µM | 19.5 ± 1.3 µM | 15.8 ± 1 µM | 27.7 ± 1.9 µM | 28.9 ± 0.2 µM | – |
| CN1C(=O)/C(=C/C(=O)c2cccc(C(F)(F)F)c2)c2ccccc21 [Compound 17] | 26.2 ± 2.1 µM | 16.1 ± 2.2 µM | 17.9 ± 0.4 µM | 89.6 ± 3.6 µM | 34.2 ± 18.2 µM | – |
| CN1C(=O)/C(=C/C(=O)c2ccc(C(F)(F)F)cc2)c2ccccc21 [Compound 18] | 90.5 ± 7.3 µM | 15.7 ± 1.7 µM | 44.4 ± 0.1 µM | 89.8 ± 5.1 µM | > 100 µM | – |
| CN1C(=O)/C(=C\C(=O)c2ccc(Cl)cc2)c2ccccc21 [Compound 20] | 28.7 ± 2.4 µM | 16.1 ± 2.4 µM | 20.4 ± 3.5 µM | 91.7 ± 2 µM | 15.9 ± 2.9 µM | – |
| O=C1C=CC(=O)c2c(O)cccc21 [juglone] | – | – | – | – | – | markedly increased |
